Measured values published in publication PMC12559310, “Tumor-targeted top1 inhibitor delivery with optimized parp inhibition in advanced solid tumors: a phase i trial of gapped scheduling” (Nature Communications, 2025).
Values joined by “and” are separate entries in the source; they are usually repeats but may differ in a detail not shown here. Identical values can stand only once. Like-named read-outs stand apart in the source and are kept apart here.

Legend:
[1] = tested on: xenografts and patient-derived xenografts (PDXs); set-up: method as in protocol [7]; conditions: animal models; ref protocol [7]; cited from earlier work
SCLC cell lines = tested on: SCLC cell lines; set-up: method as in protocol [5]; conditions: pre-clinical models of SCLC; ref protocol [5]; cited from earlier work
[2] = tested on: platinum-sensitive SCLC relapse; set-up: method as in protocol [8]; conditions: preliminary data, ref protocol [8], cited from earlier work
γ-H2AX [3] = experiment: γ-H2AX foci per cell in PBMCs; type: in vivo, human; conditions: for γ-H2AX foci per cell in PBMCs Minus D1, averages (Fig 3G) / γ-H2AX foci per cell in PBMCs, averages (Fig 3G): D3 (before olaparib); for γ-H2AX, AVERAGES foci per cell / γ-H2AX, AVERAGES excess foci per cell: PBMCs; for γ-H2AX, AVERAGES foci per cell: D3 (48 h after CRLX101, before olaparib)
Protocol: (§1) PBMCs were isolated by Ficoll gradient, washed 3 times with phosphate-buffered saline (PBS), fixed in 2% paraformaldehyde (PFA) for 20 min, washed 3 times with PBS, and spotted on slides by cytospin (800 rpm/4 min). PBMCs on slides were permeabilized with pre-chilled ethanol 70% and slides were stored at 4 °C overnight. […] Finally, slides were incubated at 37 °C for 5 min with a solution containing RNAse A (0.5 mg/mL) and propidium iodide (PI) (5 µg/mL). Slides were then mounted with mounting medium containing PI (Vectashield, Vector Laboratories, Inc., Burlingame, CA, USA) and sealed with nail polish.
(§2) Samples were imaged by laser scanning confocal microscopy (Zeiss LSM 710 NLO). Optical sections through PBMCs and hair bulbs were combined in a maximum projection using the Zeiss Zen software. The foci were counted in PBMCs using the FociCounter software[55] by analyzing at least 200 cells, while γ-H2AX intensities were measured in the extremity of the hair bulbs with the Image J software. The above antibodies have been used in previous studies[56],[57].

[4] = tested on: patients with advanced solid tumors; experiment: Phase I dose escalation (3 + 3 design): DLTs and MTD/RP2D of CRLX101 plus olaparib; type: in vivo, human; conditions: CRLX101 12 mg/m2 combined with Olaparib 250 tab bid; % of single-agent MTD; Current study
Description: Olaparib tablets were given at escalating doses across cohorts (as shown in Fig. 1), administered twice daily on days 3–13 and 17–26 of the treatment cycle.
A standard 3 + 3 design was used for dose escalation. […] DLTs were based on toxicities observed during the first cycle. […] Study treatment was discontinued if there was a > 3-week delay in reinstitution of treatment due to drug-related toxicity during a cycle. Dose reductions were allowed for toxicities. A maximum of two dose reductions were allowed. Dose re-escalation was not allowed.

[5] = tested on: patients with advanced solid malignancies; conditions: cited from earlier work
γ-H2AX [6] = experiment: γ-H2AX intensity in plucked hair bulbs; type: in vivo, human; conditions: for gamma-H2AX intensities / excess gamma-H2AX intensities (minus D1) / gamma-H2AX intensities minus D1, averages / gamma-H2AX intensities, averages: plucked hairs; for gamma-H2AX intensities / excess gamma-H2AX intensities (minus D1): D3 (48 h after CRLX101, before olaparib); for gamma-H2AX intensities minus D1, averages / gamma-H2AX intensities, averages: D3 (before olaparib)
Protocol: as §1
Hair bulbs were collected in 1.5 microtubes filled with cold PBS and placed on ice directly after plucking. Plucked hairs were then fixed for 20 min at room temperature with 2% PFA in 1.5 microtubes. Following 3 washes with 1 ml PBS, plucked hairs were imaged, and anagen hair bulbs hairs were selected for γ-H2AX detection. Samples were permeabilized with pre-chilled ethanol 70%, washed, and stored at 4 °C until use. γ-H2AX detection was performed as described for PBMCs, but times for blocking and staining procedures were increased by 50%. Washes were performed by 3 washes with PBS. After incubation with the RNAse and PI solution at 37 °C for 30 min, hair shafts were detached from the bulbs by using a razor blade, and hair bulbs were mounted between a slide and a coverslip with mounting medium containing PI and sealed with nail polish.
as §2

[7] = phase 1/2a patients receiving the MTD (n=44), no grade 4

## Cn1ncnc1[C@H]1c2n[nH]c(=O)c3cc(F)cc(c23)N[C@@H]1c1ccc(F)cc1 [talazoparib]
[1]
  anti-tumor activity as a single agent: comparable or superior to cisplatin
SCLC cell lines
  single agent activity: striking single agent activity in a majority of SCLC cell lines tested
[2]; of 23 patients
  RECIST confirmed partial responses, patients: 2
  stable disease lasting more than 24 weeks, patients: 3
[2]
  clinical benefit rate: 25%

## Poly-CD-PEG-Camptothecin [CRLX101]
γ-H2AX [3]; DL1
  γ-H2AX foci per cell in PBMCs Minus D1, averages (Fig 3G): 0.009559
γ-H2AX [3]; DL1, average across patients
  γ-H2AX foci per cell in PBMCs, averages (Fig 3G): 0.2861
γ-H2AX [3]; DL2
  γ-H2AX foci per cell in PBMCs Minus D1, averages (Fig 3G): -0.04097
γ-H2AX [3]; DL2, average across patients
  γ-H2AX foci per cell in PBMCs, averages (Fig 3G): 0.07487
γ-H2AX [3]; DL3
  γ-H2AX foci per cell in PBMCs Minus D1, averages (Fig 3G): 0.07028
γ-H2AX [3]; DL3, average across patients
  γ-H2AX foci per cell in PBMCs, averages (Fig 3G): 0.3286
γ-H2AX [3]; DL4
  γ-H2AX foci per cell in PBMCs Minus D1, averages (Fig 3G): 0.05059
γ-H2AX [3]; DL4, average across patients
  γ-H2AX foci per cell in PBMCs, averages (Fig 3G): 0.1354
γ-H2AX [3]; DL4R
  γ-H2AX foci per cell in PBMCs Minus D1, averages (Fig 3G): 0.1138
γ-H2AX [3]; DL4R, average across patients
  γ-H2AX foci per cell in PBMCs, averages (Fig 3G): 0.1974
γ-H2AX [3]; DL1, per patient
  γ-H2AX, AVERAGES foci per cell: 0.4504 foci per cell and 0.1217 foci per cell
γ-H2AX [3]; DL2, per patient
  γ-H2AX, AVERAGES foci per cell: 0.06098 foci per cell and 0.03645 foci per cell and 0.07605 foci per cell and 0.04348 foci per cell and 0.1574 foci per cell
γ-H2AX [3]; DL3, per patient
  γ-H2AX, AVERAGES foci per cell: 0.574 foci per cell and 0.2632 foci per cell and 0.1488 foci per cell
γ-H2AX [3]; DL4, per patient
  γ-H2AX, AVERAGES foci per cell: 0.05652 foci per cell and 0.07904 foci per cell and 0.3651 foci per cell and 0.04096 foci per cell
γ-H2AX [3]; DL4R, per patient
  γ-H2AX, AVERAGES foci per cell: 0.05895 foci per cell and 0.2317 foci per cell and 0.2655 foci per cell and 0.1875 foci per cell and 0.2432 foci per cell
γ-H2AX [3]; D3 (before olaparib) minus D1, DL1, per patient
  γ-H2AX, AVERAGES excess foci per cell: 0.02853 foci per cell and -0.009408 foci per cell
γ-H2AX [3]; D3 (before olaparib) minus D1, DL2, per patient
  γ-H2AX, AVERAGES excess foci per cell: 0.01208 foci per cell and -0.0007052 foci per cell and -0.1169 foci per cell and -0.007436 foci per cell and -0.09186 foci per cell
γ-H2AX [3]; D3 (before olaparib) minus D1, DL3, per patient
  γ-H2AX, AVERAGES excess foci per cell: 0.159 foci per cell and 0.113 foci per cell and -0.06118 foci per cell
γ-H2AX [3]; D3 (before olaparib) minus D1, DL4, per patient
  γ-H2AX, AVERAGES excess foci per cell: -0.04714 foci per cell and 0.07394 foci per cell and 0.1683 foci per cell and 0.007302 foci per cell
γ-H2AX [3]; D3 (before olaparib) minus D1, DL4R, per patient
  γ-H2AX, AVERAGES excess foci per cell: 0.006793 foci per cell and 0.06366 foci per cell and 0.2087 foci per cell and 0.1048 foci per cell and 0.1705 foci per cell
[4]
  Topo1i % of MTD: 80%
[5]; 16 of a subset of NSCLC patients
  Best overall response stable disease: 73%
[5]; 28 patients treated at the MTD
  Best overall response stable disease: 64%
[5]; CRLX101 monotherapy, bi-weekly, IV over 60 min, ref protocol [15]
  MTD: 15 mg/m2
[5]; patients treated at the MTD
  Median progression-free survival (PFS): 3.7 months
[5]; [7]
  Grade 3 fatigue: 9%
  Grade 3 neutropenia: 9%
[5]; subset of NSCLC patients
  Median progression-free survival (PFS): 4.4 months
γ-H2AX [6]; Day 3 (48 h after CRLX101, pre-olaparib) vs pre-treatment, hair follicles and PBMC
  γH2AX signal after CRLX101 alone: increase in γH2AX signal
γ-H2AX [6]; DL1, average per patient
  gamma-H2AX intensities: 4.816
γ-H2AX [6]; DL1, per patient
  excess gamma-H2AX intensities (minus D1): 2.945
γ-H2AX [6]; DL2, average per patient
  gamma-H2AX intensities: 5.391 and 2.136 and 5.3349 and 5.978 and 6.804
γ-H2AX [6]; DL2, per patient
  excess gamma-H2AX intensities (minus D1): 2.273 and 0.6534 and 4.441 and 4.582 and 4.99
γ-H2AX [6]; DL3, average per patient
  gamma-H2AX intensities: 4.982 and 13.4338 and 12.7188
γ-H2AX [6]; DL3, per patient
  excess gamma-H2AX intensities (minus D1): 4.135 and 12.5502 and 12.1828
γ-H2AX [6]; DL4, average per patient
  gamma-H2AX intensities: 3.4222 and 3.662 and 5.428
γ-H2AX [6]; DL4, per patient
  excess gamma-H2AX intensities (minus D1): 2.309 and 3.241 and 5.235
γ-H2AX [6]; DL4R, average per patient
  gamma-H2AX intensities: 4.487 and 2.444 and 10.191 and 5.772
γ-H2AX [6]; DL4R, per patient
  excess gamma-H2AX intensities (minus D1): 3.986 and 2 and 9.666 and 4.568
γ-H2AX [6]; DL1
  gamma-H2AX intensities minus D1, averages: 2.945
γ-H2AX [6]; DL1, average across patients
  gamma-H2AX intensities, averages: 4.816
γ-H2AX [6]; DL2
  gamma-H2AX intensities minus D1, averages: 3.388
γ-H2AX [6]; DL2, average across patients
  gamma-H2AX intensities, averages: 5.129
γ-H2AX [6]; DL3
  gamma-H2AX intensities minus D1, averages: 9.623
γ-H2AX [6]; DL3, average across patients
  gamma-H2AX intensities, averages: 10.3781
γ-H2AX [6]; DL4
  gamma-H2AX intensities minus D1, averages: 0.8727
γ-H2AX [6]; DL4, average across patients
  gamma-H2AX intensities, averages: 4.171
γ-H2AX [6]; DL4R
  gamma-H2AX intensities minus D1, averages: 3.856
γ-H2AX [6]; DL4R, average across patients
  gamma-H2AX intensities, averages: 5.7233
